Assay results from patent US20210137958A1, “PHARMACEUTICAL COMPOSITIONS OF DECITABINE” (SHILPA MEDICARE LIMITED, priority 2018, published 2021).

Experiments:
[1] = type: physicochemical
From the text: a) Impurity 1 is formed in acidic and basic conditions. Impurity 1 is chemically 5-Azacytosine or 4-amino-1, 3, 5-triazin-2(1H)-one and represented by following structure.
b) Impurity 2 is an oxidation impurity formed by peroxide stress and is chemically (4-amino-1-(tetrahydro-4-hydroxy-5-(Hydroxymethyl)furan-2-yl)-1,3,5-triazin-2(1H)-one or alpha isomer and represented by following structure
c) Impurity 3 is an oxidation impurity formed by peroxide stress. Impurity 3 is chemically represented as (2-Deoxy-ribufuranosyl-3-guanylurea) or deformyl impurity and represented by following structure
d) NFDU impurity is a transition impurity and increases on oxidation by peroxide stress chemically represented as N-(formylamidino) N′-β-D-2′-deoxyribofuranosylurea and structurally represented as […]

[2] = reconstituted and diluted Dacogen solution; cited from earlier work

Nc1ncn([C@H]2C[C@H](O)[C@@H](CO)O2)c(=O)n1 [decitabine, 4-amino-1-(2-deoxy-β-D-erythro-pentofuranosyl)-1,3,5-triazin-2(1H)-one]
Impurities obtained on forced degradation [1]: four known impurities namely Impurity-1, Impurity-2, Impurity-3 and NFDU are obtained | Stability in aqueous media [2]: highly unstable
